Calls of active or inactive are those of the source.
Experiments:
Cytochrome P450 1A2 = target: T1, Cytochrome P450 1A2 (Homo sapiens, UniProt P05177);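 also: PubChem cytochrome P450 panel assay, CYP1A2 panel member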
T1 sequence (P05177 whole entry): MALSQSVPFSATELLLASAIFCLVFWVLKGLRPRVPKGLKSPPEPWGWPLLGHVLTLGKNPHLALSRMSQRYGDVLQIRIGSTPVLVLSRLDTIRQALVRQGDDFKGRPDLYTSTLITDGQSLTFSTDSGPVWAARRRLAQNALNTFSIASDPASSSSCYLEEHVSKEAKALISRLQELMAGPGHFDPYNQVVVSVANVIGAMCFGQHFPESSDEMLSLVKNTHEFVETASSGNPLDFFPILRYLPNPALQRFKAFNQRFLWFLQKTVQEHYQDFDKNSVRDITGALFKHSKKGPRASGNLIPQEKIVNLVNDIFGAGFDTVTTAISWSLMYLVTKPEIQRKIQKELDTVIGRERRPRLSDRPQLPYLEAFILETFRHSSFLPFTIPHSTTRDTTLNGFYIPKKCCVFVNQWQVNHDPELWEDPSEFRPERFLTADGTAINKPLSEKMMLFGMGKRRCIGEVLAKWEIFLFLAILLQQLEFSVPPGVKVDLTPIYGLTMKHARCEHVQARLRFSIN

H9c2 = assay: cells; format: functional, cell-based; conditions: Rattus norvegicus, H9c2, Myocardium
[1] = cytotoxicity toward NIH3T3 fibroblasts, dose response, counter-screen, cell-based, ATP luminescence, mouse fibroblasts (AID 2010); format: functional;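 also: cells exposed to compound for about 90 hours before reading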
[2] = inhibitors of intracellular T. cruzi replication, confirmation, NIH3T3 host cells, beta-gal luminescence (AID 2044); format: functional, cell-based;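 also: intracellular parasites grown in NIH/3T3 mouse fibroblasts as host cells; luminescent beta-galactosidase reporter signal from transgenic T. cruzi replicating inside host cells; inhibitors lower the luminescence signal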
Cytochrome P450 2C9 = Cytochrome P450 2C9 (Homo sapiens, UniProt P11712)
Sequence of Cytochrome P450 2C9 (P11712 whole entry): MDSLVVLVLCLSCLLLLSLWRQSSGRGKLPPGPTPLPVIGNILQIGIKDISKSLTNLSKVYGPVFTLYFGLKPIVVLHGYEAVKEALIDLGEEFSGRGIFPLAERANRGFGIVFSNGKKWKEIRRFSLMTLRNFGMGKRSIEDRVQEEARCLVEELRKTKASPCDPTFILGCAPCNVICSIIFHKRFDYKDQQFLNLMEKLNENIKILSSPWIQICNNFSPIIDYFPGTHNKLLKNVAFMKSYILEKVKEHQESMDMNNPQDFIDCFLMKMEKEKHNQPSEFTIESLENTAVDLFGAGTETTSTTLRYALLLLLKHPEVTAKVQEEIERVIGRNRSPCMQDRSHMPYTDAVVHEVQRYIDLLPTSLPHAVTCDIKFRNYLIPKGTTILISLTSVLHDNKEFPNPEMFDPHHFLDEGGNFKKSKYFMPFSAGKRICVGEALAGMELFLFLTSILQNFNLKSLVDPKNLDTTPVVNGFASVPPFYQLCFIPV

Cytochrome P450 2C19 = Cytochrome P450 2C19 (Homo sapiens, UniProt P33261); assay: Cytochrome panel assay with activity outcomes. Panel member name: p450-cyp2c19 Compounds with AC50 equal or less than 10 uM are considered active; format: functional
Sequence of Cytochrome P450 2C19 (P33261 whole entry): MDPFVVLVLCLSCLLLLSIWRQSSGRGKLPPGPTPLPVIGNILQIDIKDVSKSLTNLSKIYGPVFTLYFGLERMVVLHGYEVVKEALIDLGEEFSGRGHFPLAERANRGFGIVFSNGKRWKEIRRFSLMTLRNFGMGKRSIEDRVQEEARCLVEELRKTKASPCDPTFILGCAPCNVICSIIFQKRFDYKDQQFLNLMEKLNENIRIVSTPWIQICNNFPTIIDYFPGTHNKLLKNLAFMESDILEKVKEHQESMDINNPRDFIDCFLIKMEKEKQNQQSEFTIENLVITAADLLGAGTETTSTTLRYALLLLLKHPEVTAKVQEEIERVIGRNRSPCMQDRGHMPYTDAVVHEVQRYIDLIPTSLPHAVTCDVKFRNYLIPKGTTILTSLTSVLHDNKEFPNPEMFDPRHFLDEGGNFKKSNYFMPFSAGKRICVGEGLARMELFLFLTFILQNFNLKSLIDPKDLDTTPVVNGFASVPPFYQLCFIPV

[3] = target: T2, Corticotropin-releasing factor receptor 2/Corticotropin-releasing factor-binding protein (Homo sapiens, UniProt P24387+Q13324); assay: activators of CRF receptor 2 with binding protein – uHTS hits, confirmation (AID 602473); format: functional; conditions: read-out: EC50_Mean
T2 sequence (Q13324 whole entry): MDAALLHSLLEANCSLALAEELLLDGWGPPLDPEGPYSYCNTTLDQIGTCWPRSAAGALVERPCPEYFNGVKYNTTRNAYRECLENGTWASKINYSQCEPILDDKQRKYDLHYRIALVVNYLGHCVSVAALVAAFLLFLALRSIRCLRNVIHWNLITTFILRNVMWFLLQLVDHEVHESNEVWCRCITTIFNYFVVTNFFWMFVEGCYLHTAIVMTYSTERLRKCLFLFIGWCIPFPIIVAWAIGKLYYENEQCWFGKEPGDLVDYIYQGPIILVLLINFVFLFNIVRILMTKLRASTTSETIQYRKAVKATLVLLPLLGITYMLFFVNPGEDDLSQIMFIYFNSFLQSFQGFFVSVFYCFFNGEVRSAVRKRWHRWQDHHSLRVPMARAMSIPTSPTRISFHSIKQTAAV
T2 sequence (P24387 whole entry): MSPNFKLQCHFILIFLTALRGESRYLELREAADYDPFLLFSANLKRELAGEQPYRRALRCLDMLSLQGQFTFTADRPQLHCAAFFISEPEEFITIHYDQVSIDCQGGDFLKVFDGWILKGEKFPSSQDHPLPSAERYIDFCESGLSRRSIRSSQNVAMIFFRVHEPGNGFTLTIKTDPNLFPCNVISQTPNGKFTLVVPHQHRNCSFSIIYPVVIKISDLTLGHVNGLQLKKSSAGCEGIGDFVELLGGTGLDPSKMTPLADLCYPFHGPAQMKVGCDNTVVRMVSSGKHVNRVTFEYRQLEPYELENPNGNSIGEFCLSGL
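For IC50 in this document: confirmatory concentration-response retest of ultra-high-throughput screening hits for modulation of myocardial damage; cell death induced by hydrogen peroxide oxidative stress; compound pretreatment for 60 min then peroxide exposure for 2 h; potency is for protecting the cells against peroxide damage rather than for killing them.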

## N[C@@H](Cn1cc(I)c(=O)[nH]c1=O)C(=O)O
Cytochrome P450 1A2
  AC50: 39.8 µM (inconclusive)

## COc1ccc(-c2cc(C(=O)NC(C)c3ccccn3)c3ccccc3n2)cc1OC (stereo not drawn)
H9c2
  IC50: > 79 µM (inactive)

## COc1cc(-c2cc(C(=O)Nc3cccc(C(C)=O)c3)c3ccccc3n2)cc(OC)c1OC
H9c2
  IC50: > 79 µM (inactive)

## CCCCNC(=O)c1cc2c(=O)n3cccc(C)c3nc2n(Cc2ccccc2)c1=N
[1]
  EC50: > 60 µM (not active)
[2]
  EC50: 3.03 µM (active)

## COc1ccc(-c2nc3cnc(Oc4ccccc4)nc3n(Cc3cccs3)c2=O)cc1
Cytochrome P450 2C9
  AC50: 1.26 µM (inconclusive)

## Cc1ncc(CO)c2c1Oc1nc(-c3ccccc3)nc(SCC(=O)N3CCCCC3)c1C2
H9c2
  IC50: > 79 µM (inactive)

## COc1ccc(-c2nc3cnc(N4CCN(C)CC4)nc3n(C3CC3)c2=O)cc1
Cytochrome P450 1A2
  AC50: 20 µM (inconclusive)

## CC(OC(=O)Cn1[nH]c(=O)c2ccccc2c1=O)C(=O)Nc1ccc(F)cc1 (stereo not drawn)
H9c2
  IC50: > 79 µM (inactive)

## COc1ccc(C2CC(C(F)(F)F)n3nc(C(=O)N(C)Cc4cn(C)nc4C)c(Cl)c3N2)cc1 (stereo not drawn)
Cytochrome P450 2C19; read-out: AC50
  AC50: 17.8 µM (inconclusive)
Cytochrome P450 2C9
  AC50: 17.8 µM (inconclusive)

## O=c1[nH]c2c(S)nc(O)nc2n1-c1ccccc1
Cytochrome P450 2C19
  AC50: inconclusive

## NS(=O)(=O)c1cc2c(cc1C(F)(F)F)N[C@H](Cc1ccccc1)NS2(=O)=O
Cytochrome P450 1A2
  AC50: 15.8 µM (inconclusive)

## CCOc1cccc(C2C(C(=O)c3ccc(C)o3)=C(O)C(=O)N2Cc2ccncc2)c1 (stereo not drawn)
Cytochrome P450 2C19; read-out: AC50
  AC50: 39.8 µM (inconclusive)
Cytochrome P450 1A2
  AC50: 39.8 µM (inconclusive)

## CC(C)N(CCn1c(=S)[nH]c2ccccc2c1=O)C(C)C
[3]
  EC50: 9.1 µM (active)

## Cc1ccc(OC(F)F)c(NC(=O)Nc2cccc(C(F)(F)F)c2)c1
[1]
  EC50: > 60 µM (not active)
[2]
  EC50: 2.41 µM (active)

## CSc1ccc2c(c1)N(CC[C@H]1CCCCN1C)c1ccccc1S2
Cytochrome P450 2C19; read-out: AC50
  AC50: 20 µM (inconclusive)

## COc1ccc(-c2csc(NC(=O)c3ccc(OCC(=O)N4CCOCC4)c(OC)c3)n2)cc1OC
H9c2
  IC50: > 79 µM (inactive)

## OCCSCc1cc(Cl)cc(Cl)c1O
Cytochrome P450 2C9
  AC50: 3.98 µM (inconclusive)

## O=C(CNC(=S)N(Cc1ccccc1)Cc1cccnc1)NC1CCCCC1
[1]
  EC50: 11.1 µM (active)
[2]
  EC50: 0.516 µM (active)

## CCCS(=O)(=O)N1CCN(CC2CC=CCC2)CC1 (stereo not drawn)
Cytochrome P450 1A2
  AC50: 12.6 µM (inconclusive)

## CCN(CC)CCNc1nc(-c2ccccc2)c2c(c1C#N)CC(C)(C)OC2
[1]
  EC50: > 60 µM (not active)
[2]
  EC50: 0.332 µM (active)

## CN(C)C(=O)COC(=O)[C@H](Cc1ccccc1)NC(=O)c1ccco1
[3]
  EC50: 19.4 µM (active)

## O=C(Nc1nc2c(s1)CCCC2)c1ccc(S(=O)(=O)N2CCCc3ccccc32)cc1
[1]
  EC50: > 60 µM (inconclusive)
[2]
  EC50: 2.07 µM (active)

## N#Cc1ccc(-c2ccc(OCC(O)CN3CCCCC3)cc2)cc1 (stereo not drawn)
[1]
  EC50: 12.1 µM (active)
[2]
  EC50: 1.98 µM (active)

## O=C(COc1ccc(F)cc1)Nc1cc(S(=O)(=O)N2CCCCC2)ccc1N1CCCCC1
[1]
  EC50: > 60 µM (not active)
[2]
  EC50: 2.15 µM (active)

## CCCCc1nc(O)c2c3c(sc2n1)CCC3
H9c2
  IC50: > 79 µM (inactive)

## N#CCCn1c(=O)c(CCc2ccccc2)nc2cnc(Oc3ccccc3)nc21
Cytochrome P450 1A2
  AC50: 12.6 µM (inconclusive)

## Cc1nc2ccccc2c(=O)n1-n1cnnc1
Cytochrome P450 1A2
  AC50: 3.16 µM (inconclusive)

## O=C(CN(C(=O)Cn1nnc(-c2cccs2)n1)c1cnc2ccccc2c1)NCC1CCCO1 (stereo not drawn)
H9c2
  IC50: 75.1 µM (inactive)

## COc1ccc(NC(=O)c2cc(-c3cccnc3)nc3c(C)c(C)ccc23)c(OC)c1
[1]
  EC50: > 60 µM (not active)
[2]
  EC50: 2.69 µM (active)

## CC(=O)N(C)c1nnc(-c2cnccn2)s1
Cytochrome P450 2C19
  AC50: inconclusive

## CS(=O)(=O)N1CCC[C@@]2(CCN(C(c3ccccc3)c3ccccc3)C2)C1
Cytochrome P450 2C19; read-out: AC50
  AC50: 3.16 µM (inconclusive)
Cytochrome P450 1A2
  AC50: 25.1 µM (inconclusive)

## c1csc(CNc2ccnc(-c3ccoc3)n2)c1
Cytochrome P450 2C19; read-out: AC50
  AC50: 31.6 µM (inconclusive)

Source: ChEMBL document CHEMBL1201862, “PubChem BioAssay data set” (2004)
